The target of the first experiment is 5-hydroxytryptamine receptor 4 (Cavia porcellus, UniProt O70528). Note: in other assays of this panel Not Active means under 50% inhibition at 10 µM.
5-hydroxytryptamine receptor 4, sequence (O70528 whole entry): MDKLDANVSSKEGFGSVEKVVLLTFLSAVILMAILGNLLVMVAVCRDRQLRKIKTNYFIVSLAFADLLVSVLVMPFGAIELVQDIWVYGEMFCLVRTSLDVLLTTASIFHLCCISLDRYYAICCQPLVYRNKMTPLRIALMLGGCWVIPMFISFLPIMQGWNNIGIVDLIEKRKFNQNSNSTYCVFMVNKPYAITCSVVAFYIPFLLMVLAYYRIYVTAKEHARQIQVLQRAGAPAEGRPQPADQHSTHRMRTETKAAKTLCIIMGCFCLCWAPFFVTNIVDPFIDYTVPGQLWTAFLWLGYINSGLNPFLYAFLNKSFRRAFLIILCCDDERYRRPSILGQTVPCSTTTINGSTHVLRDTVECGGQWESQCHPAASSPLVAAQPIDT
Test: not given
In kind it is cell membranes, Dunkin-Hartley, Striatum, Membrane.
Conditions: not given
Substance-P receptor, sequence (P25103 whole entry): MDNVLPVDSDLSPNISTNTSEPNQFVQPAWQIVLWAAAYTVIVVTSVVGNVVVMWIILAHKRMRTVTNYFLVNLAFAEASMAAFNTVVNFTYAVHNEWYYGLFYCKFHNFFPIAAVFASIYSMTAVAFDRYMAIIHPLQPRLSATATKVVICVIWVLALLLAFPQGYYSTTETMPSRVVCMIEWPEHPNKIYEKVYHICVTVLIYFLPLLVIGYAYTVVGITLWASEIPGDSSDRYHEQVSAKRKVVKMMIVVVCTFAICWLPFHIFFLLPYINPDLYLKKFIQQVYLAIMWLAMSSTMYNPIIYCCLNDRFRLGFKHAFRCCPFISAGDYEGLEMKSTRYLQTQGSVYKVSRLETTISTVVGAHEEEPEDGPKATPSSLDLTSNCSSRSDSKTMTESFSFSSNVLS
Receptor tyrosine-protein kinase erbB-2, sequence (P04626 whole entry): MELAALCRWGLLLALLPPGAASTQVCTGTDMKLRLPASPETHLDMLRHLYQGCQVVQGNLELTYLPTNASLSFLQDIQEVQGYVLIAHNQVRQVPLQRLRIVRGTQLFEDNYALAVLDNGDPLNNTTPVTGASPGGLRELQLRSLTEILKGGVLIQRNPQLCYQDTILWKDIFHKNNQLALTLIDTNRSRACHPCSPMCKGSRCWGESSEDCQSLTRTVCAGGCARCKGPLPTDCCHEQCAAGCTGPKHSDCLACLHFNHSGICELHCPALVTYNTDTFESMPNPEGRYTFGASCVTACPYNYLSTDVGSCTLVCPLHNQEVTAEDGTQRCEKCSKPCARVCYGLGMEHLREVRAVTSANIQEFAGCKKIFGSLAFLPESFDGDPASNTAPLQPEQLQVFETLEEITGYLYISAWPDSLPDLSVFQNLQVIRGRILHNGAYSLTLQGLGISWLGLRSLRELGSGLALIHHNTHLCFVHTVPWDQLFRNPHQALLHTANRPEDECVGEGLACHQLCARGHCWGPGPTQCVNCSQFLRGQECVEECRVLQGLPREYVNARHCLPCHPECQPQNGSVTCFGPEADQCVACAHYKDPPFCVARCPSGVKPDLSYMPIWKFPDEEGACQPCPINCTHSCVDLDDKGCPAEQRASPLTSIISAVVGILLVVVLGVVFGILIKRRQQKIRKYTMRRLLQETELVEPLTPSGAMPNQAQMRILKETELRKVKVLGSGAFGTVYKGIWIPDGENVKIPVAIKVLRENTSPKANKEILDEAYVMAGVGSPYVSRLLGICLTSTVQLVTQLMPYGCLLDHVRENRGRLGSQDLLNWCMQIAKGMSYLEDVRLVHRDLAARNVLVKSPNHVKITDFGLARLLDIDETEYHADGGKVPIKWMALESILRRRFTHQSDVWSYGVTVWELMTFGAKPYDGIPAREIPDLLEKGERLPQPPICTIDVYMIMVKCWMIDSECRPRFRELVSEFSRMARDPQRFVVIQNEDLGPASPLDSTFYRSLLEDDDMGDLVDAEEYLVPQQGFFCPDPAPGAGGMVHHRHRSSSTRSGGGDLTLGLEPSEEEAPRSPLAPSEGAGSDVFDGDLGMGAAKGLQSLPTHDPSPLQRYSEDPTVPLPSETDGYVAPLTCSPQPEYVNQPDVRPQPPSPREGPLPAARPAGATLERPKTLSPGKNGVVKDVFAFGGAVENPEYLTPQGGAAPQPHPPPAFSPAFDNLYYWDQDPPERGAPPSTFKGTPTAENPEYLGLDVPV
Take `CC[C@H](C)C(=O)O[C@H]1C[C@@H](C)C=C2C=C[C@H](C)[C@H](CC[C@@H]3C[C@@H](O)CC(=O)O3)[C@H]21` [LOVASTATIN]: the IC50 entry is on record as “Not Active”.
On the same count and under the same terms, then `CC(C(=O)O)c1ccc(CC2CCCC2=O)cc1` (stereo unspecified) [LOXOPROFEN], with “Not Active”; and `Cc1cccc(Nc2ccccc2C(=O)O)c1C` [MEFENAMIC ACID], with “Not Active”.
On the same count and under the same terms, in the case of `CC(=O)O[C@]1(C(C)=O)CC[C@H]2[C@@H]3C=C(C)C4=CC(=O)CC[C@]4(C)[C@H]3CC[C@@]21C` [MEGESTROL ACETATE] it was “Not Active”; in that of `COc1ccccc1OCC(O)COC(N)=O` (stereo unspecified) [METHOCARBAMOL], “Not Active”.
For `CN(Cc1cnc2nc(N)nc(N)c2n1)c1ccc(C(=O)N[C@@H](CCC(=O)O)C(=O)O)cc1` [METHOTREXATE], the IC50 entry was “Not Active”.
Same read-out and setting: then `COC(=O)c1ccccc1O` [METHYL SALICYLATE], with “Not Active”; and `COc1ccc2cc(CCC(C)=O)ccc2c1` [NABUMETONE], with “Not Active”.

A further experiment addresses Receptor tyrosine-protein kinase erbB-2 (Homo sapiens, UniProt P04626). Nature of the experiment: biochemical. In kind it is cell-based, Insect cells. To be noted: insect cells.
`CC[C@H](C)C(=O)O[C@H]1C[C@@H](C)C=C2C=C[C@H](C)[C@H](CC[C@@H]3C[C@@H](O)CC(=O)O3)[C@H]21` [LOVASTATIN]: the IC50 entry was “Not Active”.
Still for that read-out and setting: in the case of `CC(C(=O)O)c1ccc(CC2CCCC2=O)cc1` (stereo unspecified) [LOXOPROFEN] it was “Not Active”; in that of `Cc1cccc(Nc2ccccc2C(=O)O)c1C` [MEFENAMIC ACID], “Not Active”; in that of `CC(=O)O[C@]1(C(C)=O)CC[C@H]2[C@@H]3C=C(C)C4=CC(=O)CC[C@]4(C)[C@H]3CC[C@@]21C` [MEGESTROL ACETATE], “Not Active”.
Same read-out and setting: then `COc1ccccc1OCC(O)COC(N)=O` (stereo unspecified) [METHOCARBAMOL], with “Not Active”.
On the same count and under the same terms, in the case of `CN(Cc1cnc2nc(N)nc(N)c2n1)c1ccc(C(=O)N[C@@H](CCC(=O)O)C(=O)O)cc1` [METHOTREXATE] it was “Not Active”; in that of `COC(=O)c1ccccc1O` [METHYL SALICYLATE], “Not Active”; in that of `COc1ccc2cc(CCC(C)=O)ccc2c1` [NABUMETONE], “Not Active”.

A further experiment concerns the target Substance-P receptor (Homo sapiens, UniProt P25103). Note: in other assays of this panel Not Active means under 50% inhibition at 10 µM.
Test: not given
In kind it is cell membranes, Membrane. The following applies: cho.
In the case of `CC[C@H](C)C(=O)O[C@H]1C[C@@H](C)C=C2C=C[C@H](C)[C@H](CC[C@@H]3C[C@@H](O)CC(=O)O3)[C@H]21` [LOVASTATIN], the IC50 entry is listed as “Not Active”.
The same measure, in the same setting: in the case of `CC(C(=O)O)c1ccc(CC2CCCC2=O)cc1` (stereo unspecified) [LOXOPROFEN] it was “Not Active”.
The same measure, in the same setting: then `Cc1cccc(Nc2ccccc2C(=O)O)c1C` [MEFENAMIC ACID], with “Not Active”.
The same measure, in the same setting: in the case of `CC(=O)O[C@]1(C(C)=O)CC[C@H]2[C@@H]3C=C(C)C4=CC(=O)CC[C@]4(C)[C@H]3CC[C@@]21C` [MEGESTROL ACETATE] it was “Not Active”; in that of `COc1ccccc1OCC(O)COC(N)=O` (stereo unspecified) [METHOCARBAMOL], “Not Active”.
As to `CN(Cc1cnc2nc(N)nc(N)c2n1)c1ccc(C(=O)N[C@@H](CCC(=O)O)C(=O)O)cc1` [METHOTREXATE], the IC50 entry was “Not Active”.
The same measure, in the same setting: in the case of `COC(=O)c1ccccc1O` [METHYL SALICYLATE] it was “Not Active”.
Still for that read-out and setting: in the case of `COc1ccc2cc(CCC(C)=O)ccc2c1` [NABUMETONE] it was “Not Active”.

For another experiment, the target named is Acetylcholinesterase (Homo sapiens, UniProt P22303). Briefly: DRUGMATRIX: Acetylcholinesterase enzyme inhibition (substrate: acetylthiocholine). In kind it is cell-based, HEK293. To be noted: hek293; Not Active = under 50% inhibition at 10 µM.
Acetylcholinesterase, sequence (P22303 whole entry): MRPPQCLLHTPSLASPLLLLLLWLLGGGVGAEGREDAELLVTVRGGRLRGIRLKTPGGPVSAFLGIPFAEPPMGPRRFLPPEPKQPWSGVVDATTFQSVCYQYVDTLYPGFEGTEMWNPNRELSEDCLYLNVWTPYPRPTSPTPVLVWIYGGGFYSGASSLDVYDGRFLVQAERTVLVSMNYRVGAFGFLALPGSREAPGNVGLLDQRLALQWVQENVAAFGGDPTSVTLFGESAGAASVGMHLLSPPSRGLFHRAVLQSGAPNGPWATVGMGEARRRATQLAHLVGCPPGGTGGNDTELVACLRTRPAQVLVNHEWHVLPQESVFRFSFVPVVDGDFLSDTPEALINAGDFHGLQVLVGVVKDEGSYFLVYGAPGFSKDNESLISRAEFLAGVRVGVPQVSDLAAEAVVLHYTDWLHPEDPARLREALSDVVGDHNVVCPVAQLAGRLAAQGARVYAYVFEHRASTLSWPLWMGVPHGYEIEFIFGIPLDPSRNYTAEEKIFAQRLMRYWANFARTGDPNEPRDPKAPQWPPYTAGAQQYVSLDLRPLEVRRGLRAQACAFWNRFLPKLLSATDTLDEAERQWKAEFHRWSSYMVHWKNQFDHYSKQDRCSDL
For `CC[C@H](C)C(=O)O[C@H]1C[C@@H](C)C=C2C=C[C@H](C)[C@H](CC[C@@H]3C[C@@H](O)CC(=O)O3)[C@H]21` [LOVASTATIN], the IC50 entry was “Not Active”.
Same read-out and setting: in the case of `CC(C(=O)O)c1ccc(CC2CCCC2=O)cc1` (stereo unspecified) [LOXOPROFEN] it was “Not Active”.
With `Cc1cccc(Nc2ccccc2C(=O)O)c1C` [MEFENAMIC ACID], the IC50 entry was “Not Active”.
For `CC(=O)O[C@]1(C(C)=O)CC[C@H]2[C@@H]3C=C(C)C4=CC(=O)CC[C@]4(C)[C@H]3CC[C@@]21C` [MEGESTROL ACETATE], the IC50 result was “Not Active”.
Still for that read-out and setting: in the case of `COc1ccccc1OCC(O)COC(N)=O` (stereo unspecified) [METHOCARBAMOL] it was “Not Active”.
The same measure, in the same setting: then `CN(Cc1cnc2nc(N)nc(N)c2n1)c1ccc(C(=O)N[C@@H](CCC(=O)O)C(=O)O)cc1` [METHOTREXATE], with “Not Active”.
On the same count and under the same terms, then `COC(=O)c1ccccc1O` [METHYL SALICYLATE], with “Not Active”; and `COc1ccc2cc(CCC(C)=O)ccc2c1` [NABUMETONE], with “Not Active”.

For another experiment, the target named is T1, Neuropeptide Y receptor type 2 (Homo sapiens, UniProt P49146). Note: in other assays of this panel Not Active means under 50% inhibition at 10 µM.
T1 sequence (P49146 whole entry): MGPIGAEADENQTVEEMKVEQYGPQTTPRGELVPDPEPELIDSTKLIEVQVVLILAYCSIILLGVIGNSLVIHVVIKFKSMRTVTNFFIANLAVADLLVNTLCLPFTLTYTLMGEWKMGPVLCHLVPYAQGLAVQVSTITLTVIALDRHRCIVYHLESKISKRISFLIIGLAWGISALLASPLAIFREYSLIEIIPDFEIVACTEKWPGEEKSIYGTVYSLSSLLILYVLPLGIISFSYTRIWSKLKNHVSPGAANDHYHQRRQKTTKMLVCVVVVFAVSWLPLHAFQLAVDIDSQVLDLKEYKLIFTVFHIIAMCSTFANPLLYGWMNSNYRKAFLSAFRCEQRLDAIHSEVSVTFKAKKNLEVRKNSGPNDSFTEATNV
Test: not given
It counts as cell membranes, Membrane. The following applies: kan-ts.
As to `CC[C@H](C)C(=O)O[C@H]1C[C@@H](C)C=C2C=C[C@H](C)[C@H](CC[C@@H]3C[C@@H](O)CC(=O)O3)[C@H]21` [LOVASTATIN], the IC50 entry is recorded as “Not Active”.
On the same count and under the same terms, then `CC(C(=O)O)c1ccc(CC2CCCC2=O)cc1` (stereo unspecified) [LOXOPROFEN], with “Not Active”; and `Cc1cccc(Nc2ccccc2C(=O)O)c1C` [MEFENAMIC ACID], with “Not Active”; and `CC(=O)O[C@]1(C(C)=O)CC[C@H]2[C@@H]3C=C(C)C4=CC(=O)CC[C@]4(C)[C@H]3CC[C@@]21C` [MEGESTROL ACETATE], with “Not Active”.
The same measure, in the same setting: then `COc1ccccc1OCC(O)COC(N)=O` (stereo unspecified) [METHOCARBAMOL], with “Not Active”; and `CN(Cc1cnc2nc(N)nc(N)c2n1)c1ccc(C(=O)N[C@@H](CCC(=O)O)C(=O)O)cc1` [METHOTREXATE], with “Not Active”; and `COC(=O)c1ccccc1O` [METHYL SALICYLATE], with “Not Active”.
The same measure, in the same setting: in the case of `COc1ccc2cc(CCC(C)=O)ccc2c1` [NABUMETONE] it was “Not Active”.

The target of a further experiment is Mu-type opioid receptor (Homo sapiens, UniProt P35372). Nature of the experiment: DRUGMATRIX: Opiate mu (OP3, MOP) radioligand binding (ligand: [3H] Diprenorphine). It counts as cell membranes, CHO-K1, Membrane. The following applies: cho-k1; Not Active = under 50% inhibition at 10 µM.
Mu-type opioid receptor, sequence (P35372 whole entry): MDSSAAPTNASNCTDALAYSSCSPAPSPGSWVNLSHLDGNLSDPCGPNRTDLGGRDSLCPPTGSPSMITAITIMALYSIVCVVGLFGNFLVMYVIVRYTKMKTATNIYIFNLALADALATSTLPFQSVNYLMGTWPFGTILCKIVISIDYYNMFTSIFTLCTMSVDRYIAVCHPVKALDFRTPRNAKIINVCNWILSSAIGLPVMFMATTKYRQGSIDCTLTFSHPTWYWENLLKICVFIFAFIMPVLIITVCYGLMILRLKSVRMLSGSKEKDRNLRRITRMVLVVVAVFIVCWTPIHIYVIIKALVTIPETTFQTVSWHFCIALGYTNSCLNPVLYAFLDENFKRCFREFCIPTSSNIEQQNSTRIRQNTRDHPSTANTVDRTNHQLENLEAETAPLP
`CC[C@H](C)C(=O)O[C@H]1C[C@@H](C)C=C2C=C[C@H](C)[C@H](CC[C@@H]3C[C@@H](O)CC(=O)O3)[C@H]21` [LOVASTATIN]: the IC50 entry is listed as “Not Active”.
The same measure, in the same setting: then `CC(C(=O)O)c1ccc(CC2CCCC2=O)cc1` (stereo unspecified) [LOXOPROFEN], with “Not Active”; and `Cc1cccc(Nc2ccccc2C(=O)O)c1C` [MEFENAMIC ACID], with “Not Active”; and `CC(=O)O[C@]1(C(C)=O)CC[C@H]2[C@@H]3C=C(C)C4=CC(=O)CC[C@]4(C)[C@H]3CC[C@@]21C` [MEGESTROL ACETATE], with “Not Active”.
In the case of `COc1ccccc1OCC(O)COC(N)=O` (stereo unspecified) [METHOCARBAMOL], the IC50 entry is “Not Active”.
On the same count and under the same terms, then `CN(Cc1cnc2nc(N)nc(N)c2n1)c1ccc(C(=O)N[C@@H](CCC(=O)O)C(=O)O)cc1` [METHOTREXATE], with “Not Active”; and `COC(=O)c1ccccc1O` [METHYL SALICYLATE], with “Not Active”; and `COc1ccc2cc(CCC(C)=O)ccc2c1` [NABUMETONE], with “Not Active”.

For the next experiment, the target named is T2, C-X-C chemokine receptor type 1 (Homo sapiens, UniProt P25024). Note: in other assays of this panel Not Active means under 50% inhibition at 10 µM.
T2 sequence (P25024 whole entry): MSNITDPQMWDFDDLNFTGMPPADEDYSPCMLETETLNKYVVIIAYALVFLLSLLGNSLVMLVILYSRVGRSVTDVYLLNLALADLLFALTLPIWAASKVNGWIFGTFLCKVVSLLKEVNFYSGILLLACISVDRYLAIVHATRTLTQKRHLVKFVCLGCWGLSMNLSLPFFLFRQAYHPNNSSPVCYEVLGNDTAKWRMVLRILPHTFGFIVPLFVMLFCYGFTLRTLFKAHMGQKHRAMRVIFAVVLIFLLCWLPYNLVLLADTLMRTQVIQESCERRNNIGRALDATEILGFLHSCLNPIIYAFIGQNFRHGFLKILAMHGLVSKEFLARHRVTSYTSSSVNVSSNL
Test: not given
Conditions: not given
Take `CC[C@H](C)C(=O)O[C@H]1C[C@@H](C)C=C2C=C[C@H](C)[C@H](CC[C@@H]3C[C@@H](O)CC(=O)O3)[C@H]21` [LOVASTATIN]: the IC50 entry is “Not Active”.
In the case of `CC(C(=O)O)c1ccc(CC2CCCC2=O)cc1` (stereo unspecified) [LOXOPROFEN], the IC50 entry was “Not Active”.
Still for that read-out and setting: in the case of `Cc1cccc(Nc2ccccc2C(=O)O)c1C` [MEFENAMIC ACID] it was “Not Active”; in that of `CC(=O)O[C@]1(C(C)=O)CC[C@H]2[C@@H]3C=C(C)C4=CC(=O)CC[C@]4(C)[C@H]3CC[C@@]21C` [MEGESTROL ACETATE], “Not Active”; in that of `COc1ccccc1OCC(O)COC(N)=O` (stereo unspecified) [METHOCARBAMOL], “Not Active”.
The same measure, in the same setting: then `CN(Cc1cnc2nc(N)nc(N)c2n1)c1ccc(C(=O)N[C@@H](CCC(=O)O)C(=O)O)cc1` [METHOTREXATE], with “Not Active”.
On the same count and under the same terms, then `COC(=O)c1ccccc1O` [METHYL SALICYLATE], with “Not Active”; and `COc1ccc2cc(CCC(C)=O)ccc2c1` [NABUMETONE], with “Not Active”.
